Laboratory results: paper PMC13210772, “Dual FLT3/MAPK14 Proteolysis-Targeting Chimera (PROTAC) Induces Potent Acute Myeloid Leukemia Cell Death” (Pharmaceuticals, 2026)

Experiments:
Assay in all cases: NanoBRET CELLinib128
Format in all cases: binding
NEK3 = biological target: T1, NEK3 (Homo sapiens, UniProt P51956); settings: 100% no effect, 0% complete tracer displacement, read-out: Tracer bound
T1 construct: Full-length kinase ORF (Promega, Madison, WI, USA) cloned in frame with a NanoLuc-vector was transfected into HEK293T cells; host or cells: HEK293T
Procedure: (§1) To get an impression about the binding strength of the PROTAC MA191 and the reference inhibitor MA68 to other kinases besides FLT3-ITD the binding on a kinase panel of further 128 representative protein kinases at 1 μM concentration was tested using the NanoBRET^TM cellular target engagement assay (CELLinib128 assay, CELLinib GmbH, Frankfurt, Germany). […] In none of the 128 kinases MA191 was able to displace the tracer (inhibitor) used by more than 50%, Table S1, Supplementary Information).
(§2) The CELLinib128 assay was performed by CELLinib GmbH, Frankfurt (Germany) as described previously. In brief: Full-length kinase ORF (Promega, Madison, WI, USA) cloned in frame with a NanoLuc-vector was transfected into HEK293T cells in Opti-MEM without phenol red (Life Technologies, Carlsbad, CA, USA) at a density of 2 × 10^5 cells/mL using FuGENE HD (Promega, E2312) and proteins were allowed to express for 20 h. For CDKs, where indicated below, an excess of an activator without an NLuc-fusion was cotransfected. […] The system was allowed to equilibrate at 37 °C for 2 h and 5% CO2 prior to BRET measurements. For PKCs, a chemical activator PMA was added in a final concentration of 1 µM was added together with test compounds and tracers (Promega, V1171). To measure BRET, NanoBRET^TM NanoGlo substrate + extracellular NanoLuc inhibitor (Promega, N2160) were added as per the manufacturer’s protocol, and filtered luminescence was measured (450 nm BP filter (donor) and 610 nm LP filter (acceptor)). For the 1-shot test compounds, data were normalized to the tracer control and the background control or control compound plateau and an average and SD were calculated. […] For the control compounds competitive displacement data were normalized to the tracer Ctrl and the background Ctrl and then plotted and fitted using GraphPad Prism 10 software using a normalized 3-parameter curve fit with the following equation: Y = 100/(1 + 10^X−LogIC50).

SIK3 = biological target: T2, SIK3 (Homo sapiens, UniProt Q9Y2K2); settings: 1 µM; 100% no effect, 0% complete tracer displacement
T2 construct: Full-length kinase ORF (Promega, Madison, WI, USA) cloned in frame with a NanoLuc-vector was transfected into HEK293T cells; host or cells: HEK293T
Procedure: as §1, §2

MAP3K9 = biological target: T3, MAP3K9 (Homo sapiens, UniProt P80192); settings: 100% no effect, 0% complete tracer displacement, read-out: Tracer bound
T3 construct: Full-length kinase ORF (Promega, Madison, WI, USA) cloned in frame with a NanoLuc-vector was transfected into HEK293T cells; host or cells: HEK293T
Procedure: as §1, §2

FGFR4 = biological target: T4, FGFR4 (Homo sapiens, UniProt P22455); settings: 100% no effect, 0% complete tracer displacement, read-out: Tracer bound
T4 construct: Full-length kinase ORF (Promega, Madison, WI, USA) cloned in frame with a NanoLuc-vector was transfected into HEK293T cells; host or cells: HEK293T
Procedure: as §1, §2

TYK2 = biological target: T5, TYK2 (Homo sapiens, UniProt P29597); settings: 1 µM; 100% no effect, 0% complete tracer displacement
T5 construct: Full-length kinase ORF (Promega, Madison, WI, USA) cloned in frame with a NanoLuc-vector; host or cells: HEK293T
Procedure: as §1, §2

SNRK = biological target: T6, SNRK (Homo sapiens, UniProt Q9NRH2); settings: 100% no effect, 0% complete tracer displacement, read-out: Tracer bound
T6 construct: Full-length kinase ORF (Promega, Madison, WI, USA) cloned in frame with a NanoLuc-vector was transfected into HEK293T cells; host or cells: HEK293T
Procedure: as §1, §2

IRAK4 = biological target: T7, IRAK4 (Homo sapiens, UniProt Q9NWZ3); settings: 1 µM; 100% no effect, 0% complete tracer displacement
T7 construct: Full-length kinase ORF (Promega, Madison, WI, USA) cloned in frame with a NanoLuc-vector was transfected into HEK293T cells; host or cells: HEK293T
Procedure: as §1, §2

CDK2-CCNE1 = biological target: T8, CDK2-CCNE1 (Homo sapiens, UniProt P24941); settings: 1 µM; 100% no effect, 0% complete tracer displacement
T8 construct: Full-length kinase ORF (Promega, Madison, WI, USA) cloned in frame with a NanoLuc-vector was transfected into HEK293T cells; host or cells: HEK293T
Procedure: as §1, §2

MUSK = biological target: T9, MUSK (Homo sapiens, UniProt O15146); settings: 100% no effect, 0% complete tracer displacement, read-out: Tracer bound
T9 construct: Full-length kinase ORF (Promega, Madison, WI, USA) cloned in frame with a NanoLuc-vector was transfected into HEK293T cells; host or cells: HEK293T
Procedure: as §1, §2

PAK4 = biological target: T10, PAK4 (Homo sapiens, UniProt O96013); settings: 100% no effect, 0% complete tracer displacement, read-out: Tracer bound
T10 construct: Full-length kinase ORF (Promega, Madison, WI, USA) cloned in frame with a NanoLuc-vector was transfected into HEK293T cells; host or cells: HEK293T
Procedure: as §1, §2

PRKCD-PMA = biological target: T11, PRKCD-PMA (Homo sapiens, UniProt Q05655); settings: 100% no effect, 0% complete tracer displacement, read-out: Tracer bound
T11 construct: Full-length kinase ORF (Promega, Madison, WI, USA) cloned in frame with a NanoLuc-vector was transfected into HEK293T cells; host or cells: HEK293T
Procedure: as §1, §2

RPS6KA6 = biological target: T12, RPS6KA6 (Homo sapiens, UniProt Q9UK32); settings: 1 µM; 100% no effect, 0% complete tracer displacement
T12 construct: Full-length kinase ORF (Promega, Madison, WI, USA) cloned in frame with a NanoLuc-vector was transfected into HEK293T cells; host or cells: HEK293T
Procedure: as §1, §2

BRSK1 = biological target: T13, BRSK1 (Homo sapiens, UniProt Q8TDC3); settings: 100% no effect, 0% complete tracer displacement, read-out: Tracer bound
T13 construct: Full-length kinase ORF (Promega, Madison, WI, USA) cloned in frame with a NanoLuc-vector was transfected into HEK293T cells; host or cells: HEK293T
Procedure: as §1, §2

PRKCE-PMA = biological target: T14, PRKCE-PMA (Homo sapiens, UniProt Q02156); settings: 100% no effect, 0% complete tracer displacement, read-out: Tracer bound
T14 construct: Full-length kinase ORF (Promega, Madison, WI, USA) cloned in frame with a NanoLuc-vector was transfected into HEK293T cells; host or cells: HEK293T
Procedure: as §1, §2

PHKG1 = biological target: T15, PHKG1 (Homo sapiens, UniProt Q16816); settings: 100% no effect, 0% complete tracer displacement, read-out: Tracer bound
T15 construct: Full-length kinase ORF (Promega, Madison, WI, USA) cloned in frame with a NanoLuc-vector was transfected into HEK293T cells; host or cells: HEK293T
Procedure: as §1, §2

PRKCQ-PMA = biological target: T16, PRKCQ-PMA (Homo sapiens, UniProt Q04759); settings: 100% no effect, 0% complete tracer displacement, read-out: Tracer bound
T16 construct: Full-length kinase ORF (Promega, Madison, WI, USA) cloned in frame with a NanoLuc-vector was transfected into HEK293T cells; host or cells: HEK293T
Procedure: as §1, §2

SIK1 = biological target: T17, SIK1 (Homo sapiens, UniProt P57059); settings: 1 µM; 100% no effect, 0% complete tracer displacement
T17 construct: Full-length kinase ORF (Promega, Madison, WI, USA) cloned in frame with a NanoLuc-vector was transfected into HEK293T cells; host or cells: HEK293T
Procedure: as §1, §2

PLK4 = biological target: T18, PLK4 (Homo sapiens, UniProt O00444); settings: 100% no effect, 0% complete tracer displacement, read-out: Tracer bound
T18 construct: Full-length kinase ORF (Promega, Madison, WI, USA) cloned in frame with a NanoLuc-vector was transfected into HEK293T cells; host or cells: HEK293T
Procedure: as §1, §2

STK36 = biological target: T19, STK36 (Homo sapiens, UniProt Q9NRP7); settings: 100% no effect, 0% complete tracer displacement, read-out: Tracer bound
T19 construct: Full-length kinase ORF (Promega, Madison, WI, USA) cloned in frame with a NanoLuc-vector was transfected into HEK293T cells; host or cells: HEK293T
Procedure: as §1, §2

CDK17-CCNY = biological target: T20, CDK17-CCNY (Homo sapiens, UniProt Q00537); settings: 100% no effect, 0% complete tracer displacement, read-out: Tracer bound
T20 construct: Full-length kinase ORF (Promega, Madison, WI, USA) cloned in frame with a NanoLuc-vector was transfected into HEK293T cells; host or cells: HEK293T
Procedure: as §1, §2

STK3 = biological target: T21, STK3 (Homo sapiens, UniProt Q13188); settings: 100% no effect, 0% complete tracer displacement, read-out: Tracer bound
T21 construct: Full-length kinase ORF (Promega, Madison, WI, USA) cloned in frame with a NanoLuc-vector was transfected into HEK293T cells; host or cells: HEK293T
Procedure: as §1, §2

BTK = biological target: T22, BTK (Homo sapiens, UniProt Q06187); settings: 1 µM; 100% no effect, 0% complete tracer displacement
T22 construct: Full-length kinase ORF (Promega, Madison, WI, USA) cloned in frame with a NanoLuc-vector was transfected into HEK293T cells; host or cells: HEK293T
Procedure: as §1, §2

TEK = biological target: T23, TEK (Homo sapiens, UniProt Q02763); settings: 100% no effect, 0% complete tracer displacement, read-out: Tracer bound
T23 construct: Full-length kinase ORF (Promega, Madison, WI, USA) cloned in frame with a NanoLuc-vector was transfected into HEK293T cells; host or cells: HEK293T
Procedure: as §1, §2

NEK9 = biological target: T24, NEK9 (Homo sapiens, UniProt Q8TD19); settings: 100% no effect, 0% complete tracer displacement, read-out: Tracer bound
T24 construct: Full-length kinase ORF (Promega, Madison, WI, USA) cloned in frame with a NanoLuc-vector was transfected into HEK293T cells; host or cells: HEK293T
Procedure: as §1, §2

CHEK2 = biological target: T25, CHEK2 (Homo sapiens, UniProt O96017); settings: 100% no effect, 0% complete tracer displacement, read-out: Tracer bound
T25 construct: Full-length kinase ORF (Promega, Madison, WI, USA) cloned in frame with a NanoLuc-vector was transfected into HEK293T cells; host or cells: HEK293T
Procedure: as §1, §2

FGFR1 = biological target: T26, FGFR1 (Homo sapiens, UniProt P11362); settings: 100% no effect, 0% complete tracer displacement, read-out: Tracer bound
T26 construct: Full-length kinase ORF (Promega, Madison, WI, USA) cloned in frame with a NanoLuc-vector was transfected into HEK293T cells; host or cells: HEK293T
Procedure: as §1, §2

JAK2 = biological target: T27, JAK2 (Homo sapiens, UniProt O60674); settings: 1 µM; 100% no effect, 0% complete tracer displacement
T27 construct: Full-length kinase ORF (Promega, Madison, WI, USA) cloned in frame with a NanoLuc-vector was transfected into HEK293T cells; host or cells: HEK293T
Procedure: as §1, §2

PTK2 = biological target: T28, PTK2 (Homo sapiens, UniProt Q05397); settings: 100% no effect, 0% complete tracer displacement, read-out: Tracer bound
T28 construct: Full-length kinase ORF (Promega, Madison, WI, USA) cloned in frame with a NanoLuc-vector was transfected into HEK293T cells; host or cells: HEK293T
Procedure: as §1, §2

NEK1 = biological target: T29, NEK1 (Homo sapiens, UniProt Q96PY6); settings: 100% no effect, 0% complete tracer displacement, read-out: Tracer bound
T29 construct: Full-length kinase ORF (Promega, Madison, WI, USA) cloned in frame with a NanoLuc-vector was transfected into HEK293T cells; host or cells: HEK293T
Procedure: as §1, §2

MAPK6 = biological target: T30, MAPK6 (Homo sapiens, UniProt Q16659); settings: 100% no effect, 0% complete tracer displacement, read-out: Tracer bound
T30 construct: Full-length kinase ORF (Promega, Madison, WI, USA) cloned in frame with a NanoLuc-vector was transfected into HEK293T cells; host or cells: HEK293T
Procedure: as §1, §2

T5 sequence (P29597 whole entry): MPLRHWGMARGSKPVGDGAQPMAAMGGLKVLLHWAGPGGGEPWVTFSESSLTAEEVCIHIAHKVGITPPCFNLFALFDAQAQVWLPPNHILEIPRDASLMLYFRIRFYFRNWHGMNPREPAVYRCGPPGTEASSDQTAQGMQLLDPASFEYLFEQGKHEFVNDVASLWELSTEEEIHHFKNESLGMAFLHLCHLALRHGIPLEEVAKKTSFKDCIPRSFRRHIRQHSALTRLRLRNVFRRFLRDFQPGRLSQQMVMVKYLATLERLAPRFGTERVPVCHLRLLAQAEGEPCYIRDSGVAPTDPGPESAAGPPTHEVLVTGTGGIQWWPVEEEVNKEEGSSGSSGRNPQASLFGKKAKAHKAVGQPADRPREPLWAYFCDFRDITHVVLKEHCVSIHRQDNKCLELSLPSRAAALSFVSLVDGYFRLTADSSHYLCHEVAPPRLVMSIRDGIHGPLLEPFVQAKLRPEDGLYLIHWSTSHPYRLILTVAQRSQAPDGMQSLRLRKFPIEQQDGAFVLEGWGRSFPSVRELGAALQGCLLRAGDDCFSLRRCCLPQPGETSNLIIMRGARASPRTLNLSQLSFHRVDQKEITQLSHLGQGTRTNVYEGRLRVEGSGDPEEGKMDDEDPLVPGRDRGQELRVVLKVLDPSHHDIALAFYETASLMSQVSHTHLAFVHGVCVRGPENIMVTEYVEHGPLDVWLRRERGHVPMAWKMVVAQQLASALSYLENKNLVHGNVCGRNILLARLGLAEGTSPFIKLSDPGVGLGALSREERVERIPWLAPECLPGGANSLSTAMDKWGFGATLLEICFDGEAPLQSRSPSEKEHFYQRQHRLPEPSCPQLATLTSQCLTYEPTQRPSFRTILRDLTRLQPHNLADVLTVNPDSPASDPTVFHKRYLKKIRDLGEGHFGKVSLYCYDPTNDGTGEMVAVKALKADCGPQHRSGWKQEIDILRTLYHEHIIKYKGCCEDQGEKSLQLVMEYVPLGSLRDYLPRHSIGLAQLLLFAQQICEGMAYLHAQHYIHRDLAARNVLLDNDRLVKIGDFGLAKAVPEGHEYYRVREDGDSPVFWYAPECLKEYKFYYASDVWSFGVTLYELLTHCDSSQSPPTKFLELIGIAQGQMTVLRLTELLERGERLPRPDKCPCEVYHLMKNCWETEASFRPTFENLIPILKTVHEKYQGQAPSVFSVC
T27 sequence (O60674 whole entry): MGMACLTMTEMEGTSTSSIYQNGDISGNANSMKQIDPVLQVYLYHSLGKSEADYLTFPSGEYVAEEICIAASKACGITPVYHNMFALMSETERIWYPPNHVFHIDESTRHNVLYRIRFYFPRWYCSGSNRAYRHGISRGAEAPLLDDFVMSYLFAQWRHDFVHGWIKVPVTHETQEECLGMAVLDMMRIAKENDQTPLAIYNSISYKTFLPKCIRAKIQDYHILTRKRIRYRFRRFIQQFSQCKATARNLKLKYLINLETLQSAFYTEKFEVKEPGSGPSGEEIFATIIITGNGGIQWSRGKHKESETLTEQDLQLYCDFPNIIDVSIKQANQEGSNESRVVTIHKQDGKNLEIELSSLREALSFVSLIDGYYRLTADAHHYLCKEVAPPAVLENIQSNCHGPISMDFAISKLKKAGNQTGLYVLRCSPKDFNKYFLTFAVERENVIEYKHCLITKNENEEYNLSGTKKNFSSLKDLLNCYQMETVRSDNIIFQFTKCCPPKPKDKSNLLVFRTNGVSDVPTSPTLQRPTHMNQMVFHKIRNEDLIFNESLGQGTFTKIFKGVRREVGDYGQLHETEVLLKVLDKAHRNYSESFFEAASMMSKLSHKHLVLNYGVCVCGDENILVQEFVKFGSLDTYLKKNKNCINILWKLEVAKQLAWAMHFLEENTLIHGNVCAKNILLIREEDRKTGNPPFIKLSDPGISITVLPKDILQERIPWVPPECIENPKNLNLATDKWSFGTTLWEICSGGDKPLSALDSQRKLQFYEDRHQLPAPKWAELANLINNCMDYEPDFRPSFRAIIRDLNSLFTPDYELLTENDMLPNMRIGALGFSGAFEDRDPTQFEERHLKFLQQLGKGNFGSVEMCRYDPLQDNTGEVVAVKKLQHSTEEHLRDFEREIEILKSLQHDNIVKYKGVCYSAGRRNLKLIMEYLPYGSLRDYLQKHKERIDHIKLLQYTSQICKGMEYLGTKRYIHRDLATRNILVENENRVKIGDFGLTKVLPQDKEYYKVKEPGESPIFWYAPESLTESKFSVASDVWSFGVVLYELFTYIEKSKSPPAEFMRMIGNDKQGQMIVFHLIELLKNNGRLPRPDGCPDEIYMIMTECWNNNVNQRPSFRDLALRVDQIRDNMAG
T28 sequence (Q05397 whole entry): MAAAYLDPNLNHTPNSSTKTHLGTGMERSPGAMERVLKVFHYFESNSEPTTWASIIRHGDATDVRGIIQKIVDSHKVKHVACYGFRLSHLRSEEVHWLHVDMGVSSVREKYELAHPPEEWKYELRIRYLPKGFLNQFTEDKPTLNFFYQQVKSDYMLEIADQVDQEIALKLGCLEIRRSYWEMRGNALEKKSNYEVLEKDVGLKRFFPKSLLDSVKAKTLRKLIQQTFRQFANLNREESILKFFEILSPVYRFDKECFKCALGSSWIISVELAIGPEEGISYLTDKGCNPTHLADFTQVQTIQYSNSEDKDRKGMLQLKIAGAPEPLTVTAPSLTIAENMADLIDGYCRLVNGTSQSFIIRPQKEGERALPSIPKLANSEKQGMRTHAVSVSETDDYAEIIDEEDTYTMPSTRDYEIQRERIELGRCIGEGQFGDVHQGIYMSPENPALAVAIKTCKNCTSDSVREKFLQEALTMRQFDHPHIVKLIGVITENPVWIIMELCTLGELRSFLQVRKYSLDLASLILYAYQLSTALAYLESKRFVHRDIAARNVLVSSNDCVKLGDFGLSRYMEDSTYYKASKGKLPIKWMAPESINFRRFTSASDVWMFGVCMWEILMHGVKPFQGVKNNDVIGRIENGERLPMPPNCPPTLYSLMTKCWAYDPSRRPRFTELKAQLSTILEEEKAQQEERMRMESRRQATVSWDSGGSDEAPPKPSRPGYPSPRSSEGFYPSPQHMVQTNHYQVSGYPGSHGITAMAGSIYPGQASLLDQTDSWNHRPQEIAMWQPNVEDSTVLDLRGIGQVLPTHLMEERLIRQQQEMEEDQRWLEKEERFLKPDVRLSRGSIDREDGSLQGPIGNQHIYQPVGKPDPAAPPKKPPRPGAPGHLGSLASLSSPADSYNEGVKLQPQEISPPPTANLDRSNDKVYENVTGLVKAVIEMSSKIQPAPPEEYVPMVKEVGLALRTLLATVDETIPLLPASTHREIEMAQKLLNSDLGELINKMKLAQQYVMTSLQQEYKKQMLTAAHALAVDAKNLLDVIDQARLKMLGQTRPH
T21 sequence (Q13188 whole entry): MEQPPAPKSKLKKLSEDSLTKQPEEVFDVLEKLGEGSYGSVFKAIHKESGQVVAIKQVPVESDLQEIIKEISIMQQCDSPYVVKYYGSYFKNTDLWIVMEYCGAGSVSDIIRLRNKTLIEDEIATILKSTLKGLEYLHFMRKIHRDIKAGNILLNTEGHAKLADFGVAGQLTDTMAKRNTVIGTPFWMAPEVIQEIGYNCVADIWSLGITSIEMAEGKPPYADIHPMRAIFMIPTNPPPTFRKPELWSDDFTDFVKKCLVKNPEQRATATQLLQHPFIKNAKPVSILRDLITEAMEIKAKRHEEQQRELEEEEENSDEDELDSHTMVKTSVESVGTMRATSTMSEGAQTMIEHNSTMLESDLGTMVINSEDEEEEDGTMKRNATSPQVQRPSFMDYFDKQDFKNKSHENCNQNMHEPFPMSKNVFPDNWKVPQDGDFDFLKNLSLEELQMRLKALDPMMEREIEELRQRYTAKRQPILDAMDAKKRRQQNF
T9 sequence (O15146 24-869): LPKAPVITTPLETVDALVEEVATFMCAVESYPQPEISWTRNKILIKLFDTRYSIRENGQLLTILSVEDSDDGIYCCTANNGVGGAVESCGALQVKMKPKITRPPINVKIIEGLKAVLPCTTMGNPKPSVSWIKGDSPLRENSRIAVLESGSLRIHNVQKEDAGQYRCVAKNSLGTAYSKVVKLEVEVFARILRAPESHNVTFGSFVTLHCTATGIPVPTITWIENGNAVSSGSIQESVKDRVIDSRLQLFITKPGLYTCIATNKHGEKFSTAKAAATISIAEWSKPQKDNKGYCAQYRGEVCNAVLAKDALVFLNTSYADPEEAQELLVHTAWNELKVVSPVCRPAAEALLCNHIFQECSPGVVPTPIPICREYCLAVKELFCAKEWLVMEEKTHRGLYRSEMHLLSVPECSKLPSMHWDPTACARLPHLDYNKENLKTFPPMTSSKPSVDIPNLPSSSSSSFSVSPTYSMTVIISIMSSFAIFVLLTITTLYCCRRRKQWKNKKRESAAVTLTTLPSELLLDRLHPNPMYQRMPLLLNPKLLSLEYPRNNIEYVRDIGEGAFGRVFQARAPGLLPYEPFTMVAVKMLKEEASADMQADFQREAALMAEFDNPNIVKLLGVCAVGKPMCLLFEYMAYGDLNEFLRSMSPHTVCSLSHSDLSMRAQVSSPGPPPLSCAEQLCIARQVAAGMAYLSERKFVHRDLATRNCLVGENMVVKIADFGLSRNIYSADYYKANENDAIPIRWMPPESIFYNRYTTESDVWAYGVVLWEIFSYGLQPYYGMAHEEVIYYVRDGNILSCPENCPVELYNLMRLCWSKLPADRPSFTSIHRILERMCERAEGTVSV
T15 sequence (Q16816 whole entry): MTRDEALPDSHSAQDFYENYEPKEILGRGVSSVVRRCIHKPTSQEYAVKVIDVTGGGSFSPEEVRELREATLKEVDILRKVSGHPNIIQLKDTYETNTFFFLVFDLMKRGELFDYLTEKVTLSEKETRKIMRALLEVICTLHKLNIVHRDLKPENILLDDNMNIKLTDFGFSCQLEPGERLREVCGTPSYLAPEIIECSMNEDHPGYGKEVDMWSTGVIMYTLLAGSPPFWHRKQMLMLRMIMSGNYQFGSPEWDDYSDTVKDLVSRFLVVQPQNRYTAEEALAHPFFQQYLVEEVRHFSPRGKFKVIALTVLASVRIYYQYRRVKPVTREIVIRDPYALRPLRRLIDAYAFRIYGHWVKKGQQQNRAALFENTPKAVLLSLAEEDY

SMILES: CNC(=O)c1cc(Oc2ccc(NC(=O)Nc3cc(C(C)(C)C)on3)cc2)ccn1 [MA68, reference compound]
- remaining activity at 1 µM (NEK3): 120%
- Tracer bound (SIK3): 113.2%
- remaining activity at 1 µM (MAP3K9): 111%
- remaining activity at 1 µM (FGFR4): 86.5%
- Tracer bound (TYK2): 103.2%
- remaining activity at 1 µM (SNRK): 99.2%
- Tracer bound (IRAK4): 94.3%
- Tracer bound (CDK2-CCNE1): 96.0%
- remaining activity at 1 µM (MUSK): 6%
- remaining activity at 1 µM (PAK4): 97.7%
- remaining activity at 1 µM (PRKCD-PMA): 113%
- Tracer bound (RPS6KA6): 113.5%
- remaining activity at 1 µM (BRSK1): 106%
- remaining activity at 1 µM (PRKCE-PMA): 76.2%
- remaining activity at 1 µM (PHKG1): 87.3%
- remaining activity at 1 µM (PRKCQ-PMA): 108%
- Tracer bound (SIK1): 110.5%
- remaining activity at 1 µM (PLK4): 107%
- remaining activity at 1 µM (STK36): 108%
- remaining activity at 1 µM (CDK17-CCNY): 13.9%
- remaining activity at 1 µM (STK3): 99.3%
- Tracer bound (BTK): 120.0%
- remaining activity at 1 µM (TEK): 12.6%
- remaining activity at 1 µM (NEK9): 109%
- remaining activity at 1 µM (CHEK2): 119%
- remaining activity at 1 µM (FGFR1): 69.2%
- Tracer bound (JAK2): 110.6%
- remaining activity at 1 µM (PTK2): 118%
- remaining activity at 1 µM (NEK1): 110%
- remaining activity at 1 µM (MAPK6): 113%
